Assay results: publication PMC6237300, “Influenza B viruses circulated during last 5 years in Mongolia” (PLoS ONE, 2018)

Molecular target: NA of influenza B clinical isolates (Influenza B virus, UniProt A0A1X9RX69)
Type: biochemical

Compound `CCC(CC)[C@H](NC(C)=O)[C@@H]1[C@H](O)[C@@H](C(=O)O)C[C@H]1N=C(N)N` [Peramivir, peramivir] has an IC50 of 0.47 ± 0.4 nM.
